Experimental data published in ChEMBL document CHEMBL4665853, “Inhibition of Macrophage Migration Inhibitory Factor by a Chimera of Two Allosteric Binders” (ACS Med Chem Lett, 2020).

Key:
[1] = biological target: T1, Macrophage migration inhibitory factor (Homo sapiens, UniProt P14174); test: Inhibition of recombinant human MIF expressed in Escherichia coli BL21 DE3 binding to recombinant soluble human CD74 receptor ectodomain (73 to 232 residues) expressed in Escherichia coli BL21 (DE3) pLysS using p-nitrophenyl phosphate as substrate by ELISA
T1 sequence (P14174 whole entry): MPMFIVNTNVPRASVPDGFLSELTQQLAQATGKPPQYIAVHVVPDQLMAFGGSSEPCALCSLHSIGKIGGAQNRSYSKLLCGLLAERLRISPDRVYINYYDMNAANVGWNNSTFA

[2] = biological target: T1, Macrophage migration inhibitory factor; test: Binding affinity to recombinant biotinylated human MIF expressed in Escherichia coli BL21 DE3 by surface plasmon resonance assay
[3] = biological target: T1, Macrophage migration inhibitory factor; test: Inhibition of recombinant biotinylated human MIF tautomerase activity expressed in Escherichia coli BL21 DE3 assessed as reduction in tautomerization of keto-p-hydroxyphenylpyruvate using keto-p-hydroxyphenylpyrivate as substrate preincubated for 30 mins followed by substrate addition by HTS assay
[4] = biological target: T1, Macrophage migration inhibitory factor; test: Inhibition of MIF-induced IL-8 secretion in human foreskin fibroblasts incubated for 30 mins by ELISA
[5] = biological target: T1, Macrophage migration inhibitory factor; test: Non-competitive inhibition of recombinant human MIF assessed as inhibition constant using varying levels of p-hydroxyphenylpyruvate as substrate by Lineweaver-Burk plot analysis

Row | IC50 [1] | Kd [2] | IC50 [3] | IC50 [4] | Ki [5] | SMILES
1 | 0.93 µM | 6.86 µM | 7.59 µM | 4.42 µM | – | CC(C)C(=O)c1c(Cc2cccc(/N=N/c3ccc4c(S(=O)(=O)O)cc(S(=O)(=O)O)c(N)c4c3O)c2)nn2ccccc12
2 | – | 1.4 µM | – | – | 30.9 µM | CC(C)C(=O)c1c(C(C)C)nn2ccccc12 [IBUDILAST]
